The source of these data is publication PMC12040169 (PLOS Biology, 2025).

For orientation: viability means a read-out of living cells in per cent, often relative to untreated cells.

The data set is described as follows: in vitro. The conditions noted are these: human, hela cells, % viability.

Each structure is given as a SMILES string.

As for `Cc1nccn1CCCn1cncc1-c1ccc2c(c1)CC(C)(C)O2` [CBK281809], the viability at 28.5 h, 10 µM came to 106%.
As to `CCCC/C=C/c1cnc(N)c(-c2ccc(O)cc2)n1` [CBK064068], the viability at 28.5 h, 10 µM was 95.3%.
On to `CC(C)Nc1cc(SCCN(C)C)ncn1` [CBK105616], for which the viability at 28.5 h, 10 µM turned out to be 109%.
As to `CC1(C)CC(=O)N(C2CCCCC2)C(=O)C1C#N` (stereo not drawn) [CBK009894], the viability at 28.5 h, 10 µM is 107%.
Consider `CSc1nnc(CCCNC(=O)c2cccc(C#N)c2)n1CC(C)C` [CBK306023], for which the viability at 28.5 h, 10 µM was 108%.
Regarding `CC(=O)N1CCc2c([nH]c3ccccc23)C1CCN(C)Cc1ccc(F)cc1` (stereo not drawn) [CBK066969], the viability at 28.5 h, 10 µM came to 93.9%.
As for `CC(=O)C1=C(C)N2C(=Nc3ccccc3C2(C)C)S1` [CBK010180C], the viability at 28.5 h, 10 µM amounted to 85.5%.
In the case of `CC(NCc1ccc(S(N)(=O)=O)cc1)=C1C(=O)c2ccccc2C1=O` [CBK262692], the viability at 28.5 h, 10 µM turned out to be 87%.
As for `CN(C)c1ccc(-c2nnc([C@H]3CCN(C(=O)CCC(=O)O)C3)o2)cc1` [CBK289408], the viability at 28.5 h, 10 µM worked out at 119%.
For `O=C(CC1c2ccccc2Oc2ccccc21)N1CCc2nc3ccccc3c(=O)n2CC1` [CBK286314], the viability at 28.5 h, 10 µM amounted to 92.4%.
On to `COc1ccccc1OCC(=O)N1CCNC1=O` [CBK288201], for which the viability at 28.5 h, 10 µM came to 93.8%.
Regarding `CCCC/C=C/c1cnc2[nH]c(=O)n(Cc3cccs3)c2n1` [CBK064373], the viability at 28.5 h, 10 µM came out at 83.6%.
Still for that read-out and setting: for `Cc1nn(CC(=O)N2CCC(C)CC2)c(=O)c2cc3sccc3n12` [CBK284083] the value was 80%; for `NC(=S)Nn1c(CCC(=O)O)ccc1-c1cccs1` [CBK265952], 92.3%.
Consider `O=[N+]([O-])c1ccc(NC(c2ccccc2)C2CC2)nc1` (stereo not drawn) [CBK295317], for which the viability at 28.5 h, 10 µM came out at 96.6%.
The same measure, in the same setting: for `O=C(C1=C(O)C(=O)N(Cc2cccnc2)C1c1cccc(Oc2ccccc2)c1)c1ccc(Cl)cc1` (stereo not drawn) [CBK264698] the value was 86.6%.
On to `Cn1ncc2c1CCCN(C(=O)CCc1ccccc1F)C2` [CBK285255], for which the viability at 28.5 h, 10 µM came to 96.8%.
Same read-out and setting: for `CC(=O)N1CCC[C@H]2NC(=O)CNC(=O)C3(C/C=C/C[C@H]21)CCN(Cc1cc[nH]n1)CC3` [CBK292164] the value was 103%; for `O=C(Nc1cccc(N2CCNCC2)c1)C1CCCO1` (stereo not drawn) [CBK004768T], 93.4%.
`CCC(Oc1ccccc1C)C(=O)Nc1ccccc1C(=O)N(C)C` (stereo not drawn) [CBK270144]: the viability at 28.5 h, 10 µM is 88.4%.
For the compound `O=C(Nc1ccc(F)cc1)N[C@H]1[C@H](O)[C@@H](N2CCCCC2)[C@@H]2OC[C@H]1O2` [CBK288826], the viability at 28.5 h, 10 µM worked out at 98.5%.
With `Nc1ccc(C(=O)Nc2ccc(Nc3cc(-c4cc(C(F)(F)F)cc(C(F)(F)F)c4)ncn3)cc2)cc1` [CBK091091], the viability at 28.5 h, 10 µM came to 94.8%.
Consider `Cc1nnc(SCc2cc(=O)nc(Nc3nc(C)c4ccccc4n3)[nH]2)s1` [CBK266549], for which the viability at 28.5 h, 10 µM stood at 103%.
For the compound `COC(C)CN(C)C(=O)c1nnn(-c2ccc3ncccc3c2)c1C` (stereo not drawn) [CBK304484], the viability at 28.5 h, 10 µM came out at 85.8%.
With `CC(=O)Nc1cccc(-c2cncc(NCCc3c[nH]c4ccccc34)n2)c1` [CBK037820], the viability at 28.5 h, 10 µM is 97.9%.
As for `N#Cc1ccc(NC(=O)CSc2cnn[nH]2)cc1` [CBK269931], the viability at 28.5 h, 10 µM turned out to be 87.7%.
On to `Cc1cc(NC(=O)c2ccco2)nc2c1c(=O)oc1ccccc12` [CBK291124], for which the viability at 28.5 h, 10 µM stood at 110%.
The same measure, in the same setting: for `O=C(Nc1ccccc1[N+](=O)[O-])c1ccc(Cl)c(S(=O)(=O)N2CCC(C(=O)O)CC2)c1` [CBK265180] the value was 101%; for `CC1CCN(C(=O)Cn2c(=O)n(C(C)C)c3ncccc32)CC1` [CBK283698], 89.5%; for `CC(=O)Nc1ccc(S(=O)(=O)N2CCN(S(=O)(=O)c3ccccc3[N+](=O)[O-])CC2)cc1` [CBK264314], 104%.
For `CCN(CC)c1ccc(C(=O)CN2CCC(Oc3nccnc3OCc3cccnc3)CC2)cc1` [CBK083167T], the viability at 28.5 h, 10 µM was determined as 112%.
`N#CC(CCN1CCOCC1)(c1ccccc1)c1ccccc1` [CBK263317]: under “bulk resorufin, single well”, the viability at 28.5 h, 10 µM was 90.5%.
`Cc1nc(NCCc2cnc(=O)n(C)c2O)cc(C2CCOC2)n1` (stereo not drawn) [CBK307559]: the viability at 28.5 h, 10 µM was 93.2%.
The same measure, in the same setting: for `Cc1ccsc1CN(Cc1cncn1C)CC(C)O` (stereo not drawn) [CBK283033] the value was 85.7%; for `CC(=O)Nc1ccc(CN(C)c2c(C)nc3c(OCc4ccc(C(F)(F)F)cc4)cccn23)cc1` [CBK147380], 94.5%; for `Oc1ccc(Br)cc1CN1CCN(Cc2cccc3ccccc23)CC1` [CBK263662], 87%.
`Cc1ccc(C(=O)O)cc1NC(=O)C(=O)NCC(c1ccccc1)N1CCN(C)CC1` (stereo not drawn) [CBK286864]: the viability at 28.5 h, 10 µM worked out at 92.4%.
`CC(C)(C)c1ccc(C(=O)N2CC(C(=O)O)C2)cc1` [CBK008670]: the viability at 28.5 h, 10 µM amounted to 101%.
On the same count and under the same terms, then `CCc1nnc(NC(=O)CCc2ccccc2)s1` [CBK057943], with 86.1%; and `Nc1nonc1-n1nnc(CN2CCCCC2)c1CN1CCCCC1` [CBK270636], with 82.3%.
With `Cc1nc(-c2ccccc2)sc1C(=O)C1=C(O)C(=O)N(CCCN2CCOCC2)C1c1cccs1` (stereo not drawn) [CBK266601], the viability at 28.5 h, 10 µM came to 91.4%.
Still for that read-out and setting: for `CCn1nc(C)c(-c2cncn2CCN(C)C2CCCC2)c1C` [CBK281569] the value was 109%.
Consider `O=S(=O)(c1ccc(Cl)cc1)c1ccc2ccnc(N3CCCNCC3)c2c1` [CBK036416C], for which the viability at 28.5 h, 10 µM turned out to be 82.9%.
In the case of `O=C(CN1CCC(NC(=O)c2cccs2)CC1)Nc1ccc(F)c(F)c1` [CBK305991], the viability at 28.5 h, 10 µM came to 83.8%.
`O=C(O)CCSC1CC(=O)N(c2ccc(F)cc2)C1=O` (stereo not drawn) [CBK276120]: the viability at 28.5 h, 10 µM came to 89.9%.
Consider `O=C(Cn1cnc2ccccc21)N1CCC(c2ccccc2)C1` (stereo not drawn) [CBK281845], for which the viability at 28.5 h, 10 µM was 84.5%.
Consider `O=C(Oc1ccccc1)c1ccnc(Cl)c1` [CBK090322], for which the viability at 28.5 h, 10 µM was 87.2%.
Turning to `NC(=O)c1ccc(NC(=O)N2CCN(CCN3CCOCC3)CC2)cc1` [CBK155831], the viability at 28.5 h, 10 µM worked out at 81.6%.
Same read-out and setting: then `O=C(O)COc1ccc(NC(=O)C(c2ccccc2)c2ccccc2)cc1` [CBK264250], with 99.6%; and `CCOc1cc(NC(=O)N2CCC(Cc3cnn(C)c3)C2)ccc1C` (stereo not drawn) [CBK305295], with 105%.
Take `O=C(CN1CCCN(c2nccs2)CC1)Nc1cc(Cl)ccc1Cl` [CBK305921]: the viability at 28.5 h, 10 µM turned out to be 99.7%.
The same measure, in the same setting: then `Cc1cc(OCC(=O)NCCCN2CCOCC2)cc(C)c1Br` [CBK265082], with 99.9%; and `CCOc1ccc(C(=O)N2CCN(S(=O)(=O)c3ccc(C)cc3C)CC2)cn1` [CBK298313], with 93.3%; and `Cc1cn(CC(=O)N2CCC(Cn3cncn3)(C3CCCCC3)CC2)c(=O)[nH]c1=O` [CBK136800], with 88.4%.
Same read-out and setting: then `CCN(Cc1nccn1CC)[C@H]1CCO[C@@H](c2ccccc2-c2ccc(OC)cc2)C1` [CBK285852], with 101%.
With `CS(=O)(=O)c1cccc(-c2cnc(NCCOc3ccccc3)c(C(=O)NCCc3ccccc3)c2)c1` [CBK076201], the viability at 28.5 h, 10 µM stood at 96.5%.
Regarding `COC(=O)C1C(=O)NC(SCC(=O)Nc2cccc(Cl)c2C)=C(C#N)C1c1ccccc1F` (stereo not drawn) [CBK265830], the viability at 28.5 h, 10 µM came to 94.9%.
`N#CC1=C(N)Oc2[nH]nc(-c3ccccc3)c2C12C(=O)N(Cc1ccccc1)c1ccccc12` (stereo not drawn) [CBK267787]: the viability at 28.5 h, 10 µM was determined as 93.7%.
`N/C(CC(=O)Nc1cc(Cl)cc(Cl)c1)=N\O` [CBK228614]: the viability at 28.5 h, 10 µM was found to be 105%.
In the case of `O=C(CN1CCCCCC1=O)NCC(CO)Cc1ccsc1` (stereo not drawn) [CBK306763], the viability at 28.5 h, 10 µM was found to be 118%.
In the case of `COc1nccnc1N1CCN(CCc2ccccc2)CC1` [CBK084228], the viability at 28.5 h, 10 µM was 102%.
As to `CC(=O)N1CCC2(CCCC[C@H]3CN(C(=O)CCC(C)C)CC[C@@H]3NC(=O)CNC2=O)CC1` [CBK292124], the viability at 28.5 h, 10 µM turned out to be 103%.
Turning to `CC1CCc2nc(NC(=O)Cn3cccc(C(=O)NC4CCCCC4)c3=O)sc2C1` (stereo not drawn) [CBK286064], the viability at 28.5 h, 10 µM amounted to 101%.
For the compound `O=P(Nc1ccc(Cl)c(Cl)c1)(Nc1ccc(Cl)c(Cl)c1)Oc1ccc(Cl)cc1` [CBK263487], the viability at 28.5 h, 10 µM (bulk resorufin, single well) amounted to 93.2%.
On to `O=C(Cc1c[nH]c2ccccc12)N1CCC(F)CC1` [CBK200274], for which the viability at 28.5 h, 10 µM stood at 118%.
As for `COc1ccc(CN2CCC[C@H]2c2nc(-c3ccc(OC)nc3)no2)c(O)c1` [CBK288898], the viability at 28.5 h, 10 µM amounted to 92%.
Same read-out and setting: then `Nc1c(N(CCO)C(=O)C2CCCC2)c(=O)[nH]c(=O)n1Cc1ccccc1` [CBK297490], with 97.3%; and `CC(C)COC(=O)CCNc1n[nH]c(=O)[nH]c1=O` [CBK293920], with 86.2%.
For the compound `CCOC(=O)c1cn([C@H]2CC[C@H](O)CC2)cc(Oc2ccccc2)c1=O` [CBK307565], the viability at 28.5 h, 10 µM came out at 108%.
`COc1ccc(CN2CCOCC2)cc1Br` [CBK027346]: the viability at 28.5 h, 10 µM worked out at 80.8%.
Turning to `OCCN(CCO)c1ccccc1N(CCO)CCO` [CBK009141], the viability at 28.5 h, 10 µM is 85.7%.
On the same count and under the same terms, then `CCCNC(=O)c1ccc(C)c(NC(=O)NC2CCOC2)c1` (stereo not drawn) [CBK306794], with 95.8%; and `CC1(C)CC(=O)C=C(C(=O)Nc2cncc(OC3CCNCC3)n2)O1` [CBK038922T], with 103%.
Consider `O=C1CCCc2c1c1cccc(C(=O)O)c1n2Cc1ccccc1` [CBK002365], for which, where the note is “bulk resorufin, single well”, the viability at 28.5 h, 10 µM is 95.6%.
Consider `CCOc1ccc(S(=O)(=O)N2CCN(Cc3cc(F)c(F)c(F)c3)CC2)c2cccnc12` [CBK062795], for which the viability at 28.5 h, 10 µM worked out at 95.4%.
With `CS(=O)(=O)Nc1ccc2cc(-c3cccc(C(F)(F)F)c3)cnc2n1` [CBK085671], the viability at 28.5 h, 10 µM was found to be 94.1%.
For the compound `COc1ccc(C(=O)C2=C(O)C(=O)N(CCCN(C)C)C2c2ccc(Cl)c(Cl)c2)cc1` (stereo not drawn) [CBK264723], the viability at 28.5 h, 10 µM stood at 94.4%.
The same measure, in the same setting: then `O=C(Cc1c(O)c2ccccc2[nH]c1=O)NCc1ccc(Cl)cc1` [CBK160317], with 101%.
